These results are taken from ChEMBL document CHEMBL5550210, “Discovery of Novel α,β-Unsaturated Amide Derivatives as Candidate Antifungals to Overcome Fungal Resistance” (J Med Chem, 2024).

SMILES strings stand for the structures. In brackets after ≈: the same amount, converted by molar mass.

The subject of the first experiment is Aspergillus fumigatus. The experiment is described as follows: Antifungal activity against Aspergillus fumigatus CGMCC 3.7795 assessed as inhibition of fungal growth by CLSI protocol based microdilution method.
Conditions: not given
The experiment is classed as functional. For orientation: Broth dilution looks for growth in wells or tubes with falling amounts of substance.
As for `O=C(/C=C/c1ccc(COC(Cn2ccnc2)c2ccc(Cl)cc2Cl)cc1)Nc1ccccc1` (configuration not stated), the MIC was 1 µg/mL (≈ 2.03 µM).

With `O=C(/C=C/c1ccc(COC(Cn2ccnc2)c2ccc(Cl)cc2Cl)cc1)Nc1ccc(Br)cc1` (configuration not stated), the MIC is 16 µg/mL (≈ 28 µM).

Consider `Cc1ccc(NC(=O)/C=C/c2ccc(COC(Cn3ccnc3)c3ccc(Cl)cc3Cl)cc2)cc1` (configuration not stated), for which the MIC was 16 µg/mL (≈ 31.6 µM).

Consider `O=C(/C=C/c1ccc(COC(Cn2ccnc2)c2ccc(Cl)cc2Cl)cc1)Nc1ccc(Cl)cc1` (configuration not stated), for which the MIC was found to be 0.5 µg/mL (≈ 0.949 µM).

Another experiment deals with Candida albicans. The experiment is described as follows: Antifungal activity against Candida albicans SC5314 assessed as inhibition of fungal growth by CLSI protocol based microdilution method. The experiment is classed as functional.
Conditions: not given
Regarding `O=C(/C=C/c1ccc(COC(Cn2ccnc2)c2ccc(Cl)cc2Cl)cc1)Nc1ccccc1` (configuration not stated), the minimum inhibitory concentration (MIC) stood at 0.03 µg/mL (≈ 0.0609 µM).

Take `O=C(/C=C/c1ccc(COC(Cn2ccnc2)c2ccc(Cl)cc2Cl)cc1)Nc1ccc(Br)cc1` (configuration not stated): the MIC was found to be 0.03 µg/mL (≈ 0.0525 µM).

With `Cc1ccc(NC(=O)/C=C/c2ccc(COC(Cn3ccnc3)c3ccc(Cl)cc3Cl)cc2)cc1` (configuration not stated), the minimal inhibitory concentration (MIC) amounted to 0.06 µg/mL (≈ 0.118 µM).

`O=C(/C=C/c1ccc(COC(Cn2ccnc2)c2ccc(Cl)cc2Cl)cc1)Nc1ccc(Cl)cc1` (configuration not stated): the MIC amounted to 0.03 µg/mL (≈ 0.0569 µM).

The test system of another experiment is Candida albicans. The experiment is described as follows: Antifungal activity against Candida albicans CPCC400616 assessed as inhibition of fungal growth by CLSI protocol based microdilution method. The experiment is classed as functional.
Conditions: not given
Regarding `O=C(/C=C/c1ccc(COC(Cn2ccnc2)c2ccc(Cl)cc2Cl)cc1)Nc1ccccc1` (configuration not stated), the MIC came to 0.06 µg/mL (≈ 0.122 µM).

On to `O=C(/C=C/c1ccc(COC(Cn2ccnc2)c2ccc(Cl)cc2Cl)cc1)Nc1ccc(Br)cc1` (configuration not stated), for which the MIC was 0.06 µg/mL (≈ 0.105 µM).

Consider `Cc1ccc(NC(=O)/C=C/c2ccc(COC(Cn3ccnc3)c3ccc(Cl)cc3Cl)cc2)cc1` (configuration not stated), for which the MIC worked out at 0.03 µg/mL (≈ 0.0592 µM).

Regarding `O=C(/C=C/c1ccc(COC(Cn2ccnc2)c2ccc(Cl)cc2Cl)cc1)Nc1ccc(Cl)cc1` (configuration not stated), the MIC was found to be 0.06 µg/mL (≈ 0.114 µM).

The test system of a further experiment is Candida albicans. The experiment is described as follows: Antifungal activity against fluconazole-resistant Candida albicans 901 assessed as inhibition of fungal growth by CLSI based microdilution method. The experiment is classed as functional.
Conditions: not given
`O=C(/C=C/c1ccc(COC(Cn2ccnc2)c2ccc(Cl)cc2Cl)cc1)Nc1ccccc1` (configuration not stated): the MIC stood at 1 µg/mL (≈ 2.03 µM).

For the compound `O=C(/C=C/c1ccc(COC(Cn2ccnc2)c2ccc(Cl)cc2Cl)cc1)Nc1ccc(Br)cc1` (configuration not stated), the MIC came out at 8 µg/mL (≈ 14 µM).

Turning to `Cc1ccc(NC(=O)/C=C/c2ccc(COC(Cn3ccnc3)c3ccc(Cl)cc3Cl)cc2)cc1` (configuration not stated), the MIC came out at 1 µg/mL (≈ 1.97 µM).

As for `O=C(/C=C/c1ccc(COC(Cn2ccnc2)c2ccc(Cl)cc2Cl)cc1)Nc1ccc(Cl)cc1` (configuration not stated), the MIC was determined as 1 µg/mL (≈ 1.9 µM).

The next experiment has as its system Cryptococcus neoformans. The experiment is described as follows: Antifungal activity against Cryptococcus neoformans CGMCC2.3161 assessed as inhibition of fungal growth by CLSI protocol based microdilution method. The experiment is classed as functional.
Conditions: not given
For `O=C(/C=C/c1ccc(COC(Cn2ccnc2)c2ccc(Cl)cc2Cl)cc1)Nc1ccccc1` (configuration not stated), the MIC was 1 µg/mL (≈ 2.03 µM).

As to `O=C(/C=C/c1ccc(COC(Cn2ccnc2)c2ccc(Cl)cc2Cl)cc1)Nc1ccc(Br)cc1` (configuration not stated), the MIC stood at 4 µg/mL (≈ 7 µM).

Turning to `Cc1ccc(NC(=O)/C=C/c2ccc(COC(Cn3ccnc3)c3ccc(Cl)cc3Cl)cc2)cc1` (configuration not stated), the minimum inhibitory concentration (MIC) amounted to 0.125 µg/mL (≈ 0.247 µM).

On to `O=C(/C=C/c1ccc(COC(Cn2ccnc2)c2ccc(Cl)cc2Cl)cc1)Nc1ccc(Cl)cc1` (configuration not stated), for which the MIC was 2 µg/mL (≈ 3.8 µM).

The test system of a further experiment is Nakaseomyces glabratus. The experiment is described as follows: Antifungal activity against Candida glabrata assessed as inhibition of fungal growth by CLSI protocol based microdilution method. The experiment is classed as functional.
Conditions: not given
Take `O=C(/C=C/c1ccc(COC(Cn2ccnc2)c2ccc(Cl)cc2Cl)cc1)Nc1ccccc1` (configuration not stated): the MIC was found to be 64 µg/mL (≈ 130 µM).

With `O=C(/C=C/c1ccc(COC(Cn2ccnc2)c2ccc(Cl)cc2Cl)cc1)Nc1ccc(Br)cc1` (configuration not stated), the MIC was determined as 8 µg/mL (≈ 14 µM).

`Cc1ccc(NC(=O)/C=C/c2ccc(COC(Cn3ccnc3)c3ccc(Cl)cc3Cl)cc2)cc1` (configuration not stated): the MIC came out at 16 µg/mL (≈ 31.6 µM).

Take `O=C(/C=C/c1ccc(COC(Cn2ccnc2)c2ccc(Cl)cc2Cl)cc1)Nc1ccc(Cl)cc1` (configuration not stated): the MIC is 8 µg/mL (≈ 15.2 µM).

Another experiment relates to Candida tropicalis. The experiment is described as follows: Antifungal activity against Candida tropicalis CGMCC 2.3739 assessed as inhibition of fungal growth by CLSI protocol based microdilution method. The experiment is classed as functional.
Conditions: not given
Regarding `O=C(/C=C/c1ccc(COC(Cn2ccnc2)c2ccc(Cl)cc2Cl)cc1)Nc1ccccc1` (configuration not stated), the MIC is 2 µg/mL (≈ 4.06 µM).

With `O=C(/C=C/c1ccc(COC(Cn2ccnc2)c2ccc(Cl)cc2Cl)cc1)Nc1ccc(Br)cc1` (configuration not stated), the MIC was found to be 32 µg/mL (≈ 56 µM).

For `Cc1ccc(NC(=O)/C=C/c2ccc(COC(Cn3ccnc3)c3ccc(Cl)cc3Cl)cc2)cc1` (configuration not stated), the MIC was 64 µg/mL (≈ 126 µM).

As for `O=C(/C=C/c1ccc(COC(Cn2ccnc2)c2ccc(Cl)cc2Cl)cc1)Nc1ccc(Cl)cc1` (configuration not stated), the MIC turned out to be 1 µg/mL (≈ 1.9 µM).

Another experiment has as its system Candida parapsilosis. The experiment is described as follows: Antifungal activity against Candida parapsilosis ATCC 22019 assessed as inhibition of fungal growth by CLSI protocol based microdilution method. The experiment is classed as functional. The note with it: Lodderomyces parapsilosis.
Take `O=C(/C=C/c1ccc(COC(Cn2ccnc2)c2ccc(Cl)cc2Cl)cc1)Nc1ccccc1` (configuration not stated): the MIC turned out to be 32 µg/mL (≈ 65 µM).

For `O=C(/C=C/c1ccc(COC(Cn2ccnc2)c2ccc(Cl)cc2Cl)cc1)Nc1ccc(Br)cc1` (configuration not stated), the MIC was determined as 0.25 µg/mL (≈ 0.438 µM).

Regarding `Cc1ccc(NC(=O)/C=C/c2ccc(COC(Cn3ccnc3)c3ccc(Cl)cc3Cl)cc2)cc1` (configuration not stated), the MIC came to 0.125 µg/mL (≈ 0.247 µM).

In the case of `O=C(/C=C/c1ccc(COC(Cn2ccnc2)c2ccc(Cl)cc2Cl)cc1)Nc1ccc(Cl)cc1` (configuration not stated), the MIC is 0.125 µg/mL (≈ 0.237 µM).

Another experiment deals with Candida albicans. The experiment is described as follows: Antifungal activity against fluconazole-resistant Candida albicans 904 assessed as inhibition of fungal growth by CLSI based microdilution method.
Conditions: not given
The experiment is classed as functional.
For `O=C(/C=C/c1ccc(COC(Cn2ccnc2)c2ccc(Cl)cc2Cl)cc1)Nc1ccccc1` (configuration not stated), the MIC worked out at 0.5 µg/mL (≈ 1.02 µM).

For `O=C(/C=C/c1ccc(COC(Cn2ccnc2)c2ccc(Cl)cc2Cl)cc1)Nc1ccc(Br)cc1` (configuration not stated), the MIC was 4 µg/mL (≈ 7 µM).

Turning to `Cc1ccc(NC(=O)/C=C/c2ccc(COC(Cn3ccnc3)c3ccc(Cl)cc3Cl)cc2)cc1` (configuration not stated), the MIC came to 2 µg/mL (≈ 3.95 µM).

With `O=C(/C=C/c1ccc(COC(Cn2ccnc2)c2ccc(Cl)cc2Cl)cc1)Nc1ccc(Cl)cc1` (configuration not stated), the MIC turned out to be 0.5 µg/mL (≈ 0.949 µM).

Another experiment has as its system Pichia kudriavzevii. The experiment is described as follows: Antifungal activity against Candida krusei AS 2.1045 assessed as inhibition of fungal growth by CLSI protocol based microdilution method. The experiment is classed as functional.
Conditions: not given
With `O=C(/C=C/c1ccc(COC(Cn2ccnc2)c2ccc(Cl)cc2Cl)cc1)Nc1ccccc1` (configuration not stated), the MIC came to 64 µg/mL (≈ 130 µM).

Turning to `O=C(/C=C/c1ccc(COC(Cn2ccnc2)c2ccc(Cl)cc2Cl)cc1)Nc1ccc(Br)cc1` (configuration not stated), the minimum inhibitory concentration (MIC) worked out at 16 µg/mL (≈ 28 µM).

Turning to `Cc1ccc(NC(=O)/C=C/c2ccc(COC(Cn3ccnc3)c3ccc(Cl)cc3Cl)cc2)cc1` (configuration not stated), the MIC was found to be 16 µg/mL (≈ 31.6 µM).

As for `O=C(/C=C/c1ccc(COC(Cn2ccnc2)c2ccc(Cl)cc2Cl)cc1)Nc1ccc(Cl)cc1` (configuration not stated), the minimum inhibitory concentration (MIC) worked out at 4 µg/mL (≈ 7.59 µM).

In another experiment the test system is Candida albicans. The experiment is described as follows: Antifungal activity against fluconazole-resistant Candida albicans CaR assessed as inhibition of fungal growth by CLSI based microdilution method. The experiment is classed as functional.
Conditions: not given
As for `O=C(/C=C/c1ccc(COC(Cn2ccnc2)c2ccc(Cl)cc2Cl)cc1)Nc1ccccc1` (configuration not stated), the MIC came to 8 µg/mL (≈ 16.2 µM).

For `O=C(/C=C/c1ccc(COC(Cn2ccnc2)c2ccc(Cl)cc2Cl)cc1)Nc1ccc(Br)cc1` (configuration not stated), the MIC came to 16 µg/mL (≈ 28 µM).

Consider `Cc1ccc(NC(=O)/C=C/c2ccc(COC(Cn3ccnc3)c3ccc(Cl)cc3Cl)cc2)cc1` (configuration not stated), for which the minimal inhibitory concentration (MIC) came out at 4 µg/mL (≈ 7.9 µM).

As for `O=C(/C=C/c1ccc(COC(Cn2ccnc2)c2ccc(Cl)cc2Cl)cc1)Nc1ccc(Cl)cc1` (configuration not stated), the MIC was 8 µg/mL (≈ 15.2 µM).

The test system of a further experiment is Candida albicans. The experiment is described as follows: Antifungal activity against fluconazole-resistant Candida albicans 632 assessed as inhibition of fungal growth by CLSI based microdilution method. The experiment is classed as functional.
Conditions: not given
Turning to `O=C(/C=C/c1ccc(COC(Cn2ccnc2)c2ccc(Cl)cc2Cl)cc1)Nc1ccccc1` (configuration not stated), the MIC was 0.25 µg/mL (≈ 0.508 µM).

For `O=C(/C=C/c1ccc(COC(Cn2ccnc2)c2ccc(Cl)cc2Cl)cc1)Nc1ccc(Br)cc1` (configuration not stated), the minimal inhibitory concentration (MIC) stood at 4 µg/mL (≈ 7 µM).

In the case of `Cc1ccc(NC(=O)/C=C/c2ccc(COC(Cn3ccnc3)c3ccc(Cl)cc3Cl)cc2)cc1` (configuration not stated), the MIC was determined as 0.25 µg/mL (≈ 0.494 µM).

As for `O=C(/C=C/c1ccc(COC(Cn2ccnc2)c2ccc(Cl)cc2Cl)cc1)Nc1ccc(Cl)cc1` (configuration not stated), the minimal inhibitory concentration (MIC) turned out to be 0.5 µg/mL (≈ 0.949 µM).

The next experiment has as its system Candida albicans. The experiment is described as follows: Antifungal activity against fluconazole-resistant Candida albicans 17 assessed as inhibition of fungal growth by CLSI based microdilution method. The experiment is classed as functional.
Conditions: not given
On to `O=C(/C=C/c1ccc(COC(Cn2ccnc2)c2ccc(Cl)cc2Cl)cc1)Nc1ccccc1` (configuration not stated), for which the MIC was found to be 128 µg/mL (≈ 260 µM).

`O=C(/C=C/c1ccc(COC(Cn2ccnc2)c2ccc(Cl)cc2Cl)cc1)Nc1ccc(Br)cc1` (configuration not stated): the MIC came to 32 µg/mL (≈ 56 µM).

Take `Cc1ccc(NC(=O)/C=C/c2ccc(COC(Cn3ccnc3)c3ccc(Cl)cc3Cl)cc2)cc1` (configuration not stated): the MIC amounted to 1 µg/mL (≈ 1.97 µM).

As to `O=C(/C=C/c1ccc(COC(Cn2ccnc2)c2ccc(Cl)cc2Cl)cc1)Nc1ccc(Cl)cc1` (configuration not stated), the MIC is 128 µg/mL (≈ 243 µM).

By MIC is commonly meant the lowest concentration found to suppress growth.
